# From patent US20240270821A1, “GIP/GLP1/GCG TRI-RECEPTOR AGONISTS AND USES THEREOF” (priority 2023, published 2024)
# Starred links: 1 amine or outer side, 2 acyl side, 3 side chain; linkers in the order of their positions; H or OH if unused. Non-standard residues stand in square brackets, D forms with d. Residues, ends and D or L forms follow the SMILES beside them. Groups on a side chain read outwards from the residue. *: point of attachment. C18 diacid = O=C(O)CCCCCCCCCCCCCCCCC(=O)*; αMePhe(2-F) = C[C@](N)(Cc1ccccc1F)C(=O)O; γGlu = O=C(O)[C@H](CCC(=O)[*:2])N[*:1]; 4Pal = N[C@@H](Cc1ccncc1)C(=O)O; Aad = N[C@@H](CCCC(=O)O)C(=O)O; Orn = NCCC[C@H](N)C(=O)O; AEEA = NCCOCCOCC(=O)O; Aib = CC(C)(N)C(=O)O
# Tests used:
# Format in all cases: cell-based
# [1] = molecular target: T1, hGIPR (Homo sapiens, UniProt P48546); test: Functional cAMP activity in the presence of 1% HSA; conditions: read-out: cAMP Rel EC50, hGIPR
# T1 sequence (P48546 22-466): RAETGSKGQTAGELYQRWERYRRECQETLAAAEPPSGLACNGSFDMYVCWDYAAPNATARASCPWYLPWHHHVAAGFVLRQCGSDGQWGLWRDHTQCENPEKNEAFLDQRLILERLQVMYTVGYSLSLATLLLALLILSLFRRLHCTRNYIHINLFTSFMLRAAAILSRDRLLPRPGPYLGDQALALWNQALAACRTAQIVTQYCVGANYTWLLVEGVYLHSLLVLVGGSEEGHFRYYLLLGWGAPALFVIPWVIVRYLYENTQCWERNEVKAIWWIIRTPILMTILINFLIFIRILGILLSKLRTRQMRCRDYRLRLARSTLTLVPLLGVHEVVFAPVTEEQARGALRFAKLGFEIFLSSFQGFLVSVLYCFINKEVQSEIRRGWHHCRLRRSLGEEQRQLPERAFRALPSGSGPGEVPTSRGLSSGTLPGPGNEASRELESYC
# [2] = molecular target: T2, hGLP-1R (Homo sapiens, UniProt P43220); test: Functional cAMP activity in the presence of 1% HSA; conditions: read-out: cAMP Rel EC50, hGLP-1R
# [3] = molecular target: human GcgR (Homo sapiens, UniProt P47871); test: Functional cAMP activity in the presence of 1% HSA; conditions: read-out: cAMP Rel EC50, hGcgR
# [4] = molecular target: T1, hGIPR; test: Functional cAMP activation in the presence of 0.1% casein (no HSA); conditions: read-out: Relative cAMP EC50, hGIPR;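 on Relative cAMP EC50, hGIPR: intracellular cAMP rise after 30 min at 37 °C read by HTRF against a standard curve, scaled between buffer alone (0%) and top control ligand concentration (100%), four-parameter fit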;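 on Relative cAMP EC50, hGLP-1R: intracellular cAMP rise after 30 min at 37 °C read by HTRF, normalized between buffer only (0%) and maximal control ligand (100%), four-parameter variable-slope fit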;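 on Relative cAMP EC50, hGcgR: intracellular cAMP rise after 30 min at 37 °C, read by HTRF against a cAMP standard curve, scaled from buffer only (0%) to maximal control ligand response (100%)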
# [5] = molecular target: T2, hGLP-1R; test: as above; conditions: read-out: Relative cAMP EC50, hGLP-1R
# [6] = molecular target: hGcgR (Homo sapiens, UniProt P47871); test: as above; conditions: read-out: Relative cAMP EC50, hGcgR;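 further: intracellular cAMP rise after 30 min at 37 °C, read by HTRF against a cAMP standard curve, scaled from buffer only (0%) to maximal control ligand response (100%)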
# Sequence of hGcgR (P47871 26-477): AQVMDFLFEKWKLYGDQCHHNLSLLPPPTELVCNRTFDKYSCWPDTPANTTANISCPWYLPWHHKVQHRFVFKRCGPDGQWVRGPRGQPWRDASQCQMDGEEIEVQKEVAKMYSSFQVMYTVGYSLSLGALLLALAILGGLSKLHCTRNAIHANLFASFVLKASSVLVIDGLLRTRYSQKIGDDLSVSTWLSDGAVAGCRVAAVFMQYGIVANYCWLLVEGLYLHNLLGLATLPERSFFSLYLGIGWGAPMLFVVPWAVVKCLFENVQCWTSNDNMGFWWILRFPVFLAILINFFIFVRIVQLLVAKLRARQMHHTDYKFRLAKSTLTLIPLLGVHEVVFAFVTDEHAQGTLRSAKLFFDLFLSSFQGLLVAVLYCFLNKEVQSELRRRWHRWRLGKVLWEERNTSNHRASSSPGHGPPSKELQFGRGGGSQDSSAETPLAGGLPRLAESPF
# Sequence of human GcgR (P47871 26-477): as above
# T2 sequence (P43220 24-463): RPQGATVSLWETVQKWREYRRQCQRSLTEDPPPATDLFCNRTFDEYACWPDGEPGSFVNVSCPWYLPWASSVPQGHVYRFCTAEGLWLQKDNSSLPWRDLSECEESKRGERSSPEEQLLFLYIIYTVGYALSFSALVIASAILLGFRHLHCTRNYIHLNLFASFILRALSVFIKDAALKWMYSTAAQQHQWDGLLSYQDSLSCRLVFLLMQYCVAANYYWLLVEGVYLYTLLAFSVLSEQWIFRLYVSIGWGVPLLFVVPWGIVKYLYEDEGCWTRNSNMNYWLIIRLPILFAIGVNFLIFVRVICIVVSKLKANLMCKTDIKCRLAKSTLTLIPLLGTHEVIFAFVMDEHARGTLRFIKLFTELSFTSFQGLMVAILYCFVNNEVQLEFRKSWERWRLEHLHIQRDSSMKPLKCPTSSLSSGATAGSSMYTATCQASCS
SMILES,EC50 [1] [nM],EC50 [2] [nM],EC50 [3] [nM],EC50 [4] [nM],EC50 [5] [nM],EC50 [6] [nM]
CC[C@H](C)[C@H](NC(=O)[C@H](Cc1ccccc1)NC(=O)[C@H](C)NC(=O)C(C)(C)NC(=O)[C@H](CCC(N)=O)NC(=O)[C@H](C)NC(=O)[C@H](CCCCNC(=O)COCCOCCNC(=O)CC[C@H](NC(=O)CCCCCCCCCCCCCCCCC(=O)O)C(=O)O)NC(=O)[C@H](CCCCN)NC(=O)[C@H](CC(=O)O)NC(=O)[C@H](CC(C)C)NC(=O)[C@H](CC(C)C)NC(=O)[C@@H](NC(=O)[C@H](CO)NC(=O)[C@H](Cc1ccc(O)cc1)NC(=O)[C@H](CC(=O)O)NC(=O)[C@H](CO)NC(=O)[C@@H](NC(=O)[C@](C)(Cc1ccccc1F)NC(=O)[C@@H](NC(=O)CNC(=O)[C@H](CCC(N)=O)NC(=O)C(C)(C)NC(=O)[C@@H](N)Cc1ccc(O)cc1)[C@@H](C)O)[C@@H](C)O)[C@@H](C)CC)C(=O)N[C@@H](CCC(=O)O)C(=O)N[C@@H](Cc1ccc(O)cc1)C(=O)N[C@@H](CC(C)C)C(=O)N[C@@H](CCC(=O)O)C(=O)N[C@@H](CCC(=O)O)C(=O)NCC(=O)NCC(=O)N1CCC[C@H]1C(=O)N[C@@H](CO)C(=O)N[C@@H](CO)C(=O)NCC(=O)N[C@@H](CCC(=O)O)C(=O)N1CCC[C@H]1C(=O)N1CCC[C@H]1C(=O)N1CCC[C@H]1C(=O)N[C@@H](CO)C(N)=O [Example 407],11.7,37.2,485,0.0362,0.259,1.49
CC[C@H](C)[C@H](NC(=O)[C@H](Cc1ccccc1)NC(=O)[C@H](C)NC(=O)C(C)(C)NC(=O)[C@H](CCC(N)=O)NC(=O)[C@H](C)NC(=O)[C@H](CCCCNC(=O)COCCOCCNC(=O)CC[C@H](NC(=O)CCCCCCCCCCCCCCCCC(=O)O)C(=O)O)NC(=O)[C@H](CCCCN)NC(=O)[C@H](CC(=O)O)NC(=O)[C@H](CC(C)C)NC(=O)[C@H](CC(C)C)NC(=O)[C@H](CO)NC(=O)[C@H](CO)NC(=O)[C@H](Cc1ccc(O)cc1)NC(=O)[C@H](CC(=O)O)NC(=O)[C@H](CO)NC(=O)[C@@H](NC(=O)[C@](C)(Cc1ccccc1F)NC(=O)[C@@H](NC(=O)CNC(=O)[C@H](CCC(N)=O)NC(=O)C(C)(C)NC(=O)[C@@H](N)Cc1ccc(O)cc1)[C@@H](C)O)[C@@H](C)O)C(=O)N[C@@H](CCC(=O)O)C(=O)N[C@@H](Cc1ccc(O)cc1)C(=O)N[C@@H](CC(C)C)C(=O)N[C@@H](CCC(=O)O)C(=O)N[C@@H](CCC(=O)O)C(=O)NCC(=O)NCC(=O)N1CCC[C@H]1C(=O)N[C@@H](CO)C(=O)N[C@@H](CO)C(=O)NCC(=O)N[C@@H](C)C(=O)N1CCC[C@H]1C(=O)N1CCC[C@H]1C(=O)N1CCC[C@H]1C(=O)N[C@@H](CO)C(N)=O [Example 409] (H-Y[Aib]QGT[αMePhe(2-F)]TSDYSSLLDKK([AEEA-γGlu-C18 diacid])AQ[Aib]AFIEYLEEGGPSSGAPPPS-NH2),66.6,41.7,1190,0.363,0.484,7.92
CC[C@H](C)[C@H](NC(=O)[C@H](Cc1ccccc1)NC(=O)[C@H](C)NC(=O)C(C)(C)NC(=O)[C@H](CCC(N)=O)NC(=O)[C@H](C)NC(=O)[C@H](CCCCNC(=O)CC[C@H](NC(=O)CC[C@H](NC(=O)CCCCCCCCCCCCCCCCC(=O)O)C(=O)O)C(=O)O)NC(=O)[C@H](CCCCN)NC(=O)[C@H](CC(=O)O)NC(=O)[C@H](CC(C)C)NC(=O)[C@H](CC(C)C)NC(=O)[C@@H](NC(=O)[C@H](CO)NC(=O)[C@H](Cc1ccncc1)NC(=O)[C@H](CC(=O)O)NC(=O)[C@H](CO)NC(=O)[C@@H](NC(=O)[C@](C)(Cc1ccccc1F)NC(=O)[C@@H](NC(=O)CNC(=O)[C@H](CCC(N)=O)NC(=O)C(C)(C)NC(=O)[C@@H](N)Cc1ccc(O)cc1)[C@@H](C)O)[C@@H](C)O)[C@@H](C)CC)C(=O)N[C@@H](CCC(=O)O)C(=O)N[C@@H](Cc1ccc(O)cc1)C(=O)N[C@@H](CC(C)C)C(=O)N[C@@H](CCC(=O)O)C(=O)N[C@@H](CCC(=O)O)C(=O)NCC(=O)NCC(=O)N1CCC[C@H]1C(=O)N[C@@H](CO)C(=O)N[C@@H](CO)C(=O)NCC(=O)N[C@@H](C)C(=O)N1CCC[C@H]1C(=O)N1CCC[C@H]1C(=O)N1CCC[C@H]1C(=O)N[C@@H](CO)C(N)=O [Example 413] (H-Y[Aib]QGT[αMePhe(2-F)]TSD[4Pal]SILLDKK([γGlu-γGlu-C18 diacid])AQ[Aib]AFIEYLEEGGPSSGAPPPS-NH2),23.5,41.4,629,0.0881,0.564,6.3
CC[C@H](C)[C@H](NC(=O)[C@H](Cc1ccccc1)NC(=O)[C@H](C)NC(=O)C(C)(C)NC(=O)[C@H](CCC(N)=O)NC(=O)[C@H](C)NC(=O)[C@H](CCCCNC(=O)CC[C@H](NC(=O)CC[C@H](NC(=O)CCCCCCCCCCCCCCCCC(=O)O)C(=O)O)C(=O)O)NC(=O)[C@H](CCCN)NC(=O)[C@H](CC(=O)O)NC(=O)[C@H](CC(C)C)NC(=O)[C@H](CC(C)C)NC(=O)[C@@H](NC(=O)[C@H](CO)NC(=O)[C@H](Cc1ccc(O)cc1)NC(=O)[C@H](CC(=O)O)NC(=O)[C@H](CO)NC(=O)[C@@H](NC(=O)[C@](C)(Cc1ccccc1F)NC(=O)[C@@H](NC(=O)CNC(=O)[C@H](CCC(N)=O)NC(=O)C(C)(C)NC(=O)[C@@H](N)Cc1ccc(O)cc1)[C@@H](C)O)[C@@H](C)O)[C@@H](C)CC)C(=O)N[C@@H](CCC(=O)O)C(=O)N[C@@H](Cc1ccc(O)cc1)C(=O)N[C@@H](CC(C)C)C(=O)N[C@@H](CCC(=O)O)C(=O)N[C@@H](CCC(=O)O)C(=O)NCC(=O)NCC(=O)N1CCC[C@H]1C(=O)N[C@@H](CO)C(=O)N[C@@H](CO)C(=O)NCC(=O)N[C@@H](C)C(=O)N1CCC[C@H]1C(=O)N1CCC[C@H]1C(=O)N1CCC[C@H]1C(=O)N[C@@H](CO)C(N)=O [Example 414] (H-Y[Aib]QGT[αMePhe(2-F)]TSDYSILLD[Orn]K([γGlu-γGlu-C18 diacid])AQ[Aib]AFIEYLEEGGPSSGAPPPS-NH2),14.9,32.8,487,0.0303,0.176,4.56
CC[C@H](C)[C@H](NC(=O)[C@H](CO)NC(=O)[C@H](Cc1ccc(O)cc1)NC(=O)[C@H](CC(=O)O)NC(=O)[C@H](CO)NC(=O)[C@@H](NC(=O)[C@](C)(Cc1ccccc1F)NC(=O)[C@@H](NC(=O)CNC(=O)[C@H](CCC(N)=O)NC(=O)C(C)(C)NC(=O)[C@@H](N)Cc1ccc(O)cc1)[C@@H](C)O)[C@@H](C)O)C(=O)N[C@@H](CC(C)C)C(=O)N[C@@H](CC(C)C)C(=O)N[C@@H](CC(=O)O)C(=O)N[C@@H](CCCCN)C(=O)N[C@@H](CCCCNC(=O)CC[C@H](NC(=O)CC[C@H](NC(=O)CCCCCCCCCCCCCCCCC(=O)O)C(=O)O)C(=O)O)C(=O)N[C@@H](C)C(=O)N[C@@H](CCC(N)=O)C(=O)NC(C)(C)C(=O)N[C@@H](CCCC(=O)O)C(=O)N[C@@H](Cc1ccccc1)C(=O)N[C@H](C(=O)N[C@@H](CCC(=O)O)C(=O)N[C@@H](Cc1ccc(O)cc1)C(=O)N[C@@H](CC(C)C)C(=O)N[C@@H](CCC(=O)O)C(=O)N[C@@H](CCC(=O)O)C(=O)NCC(=O)NCC(=O)N1CCC[C@H]1C(=O)N[C@@H](CO)C(=O)N[C@@H](CO)C(=O)NCC(=O)N[C@@H](C)C(=O)N1CCC[C@H]1C(=O)N1CCC[C@H]1C(=O)N1CCC[C@H]1C(=O)N[C@@H](CO)C(N)=O)[C@@H](C)CC [Example 415] (H-Y[Aib]QGT[αMePhe(2-F)]TSDYSILLDKK([γGlu-γGlu-C18 diacid])AQ[Aib][Aad]FIEYLEEGGPSSGAPPPS-NH2),28.9,52.6,1090,0.0496,0.38,8.64
CC[C@H](C)[C@H](NC(=O)[C@H](CO)NC(=O)[C@H](Cc1ccc(O)cc1)NC(=O)[C@H](CC(=O)O)NC(=O)[C@H](CO)NC(=O)[C@@H](NC(=O)[C@](C)(Cc1ccccc1F)NC(=O)[C@@H](NC(=O)CNC(=O)[C@H](CCC(N)=O)NC(=O)C(C)(C)NC(=O)[C@@H](N)Cc1ccc(O)cc1)[C@@H](C)O)[C@@H](C)O)C(=O)N[C@@H](CC(C)C)C(=O)N[C@@H](CC(C)C)C(=O)N[C@@H](CC(=O)O)C(=O)N[C@@H](CCCCN)C(=O)N[C@@H](CCCCNC(=O)CC[C@H](NC(=O)CC[C@H](NC(=O)CCCCCCCCCCCCCCCCC(=O)O)C(=O)O)C(=O)O)C(=O)N[C@@H](C)C(=O)N[C@@H](CCC(N)=O)C(=O)NC(C)(C)C(=O)N[C@@H](CC(N)=O)C(=O)N[C@@H](Cc1ccccc1)C(=O)N[C@H](C(=O)N[C@@H](CCC(=O)O)C(=O)N[C@@H](Cc1ccc(O)cc1)C(=O)N[C@@H](CC(C)C)C(=O)N[C@@H](CCC(=O)O)C(=O)N[C@@H](CCC(=O)O)C(=O)NCC(=O)NCC(=O)N1CCC[C@H]1C(=O)N[C@@H](CO)C(=O)N[C@@H](CO)C(=O)NCC(=O)N[C@@H](C)C(=O)N1CCC[C@H]1C(=O)N1CCC[C@H]1C(=O)N1CCC[C@H]1C(=O)N[C@@H](CO)C(N)=O)[C@@H](C)CC [Example 416] (H-Y[Aib]QGT[αMePhe(2-F)]TSDYSILLDKK([γGlu-γGlu-C18 diacid])AQ[Aib]NFIEYLEEGGPSSGAPPPS-NH2),27.6,40.8,348,0.0393,0.331,2.08
